This is an account of results in ChEMBL document CHEMBL4177586, “Small molecule adjuvants that suppress both chromosomal and mcr-1 encoded colistin-resistance and amplify colistin efficacy in polymyxin-susceptible bacteria” (Bioorg Med Chem, 2017).

Data set [1] concerns Acinetobacter baumannii. Nature of the data set: Reduction in lipid A modification in Acinetobacter baumannii ATCC 17978 at 30 uM incubated for 24 hrs by MALDI-TOF mass spectrometry. It is filed as functional, organism-based.
Data set [2] has as its system Klebsiella pneumoniae. Description: Potentiation of colistin-induced antimicrobial activity against colistin-resistant Klebsiella pneumoniae C5 assessed as colistin MIC at 60 uM incubated for overnight duration by CLSI based method (reference value: 128 ug/ml). It is filed as functional.
The test system of data set [3] is Escherichia coli. Description: Potentiation of colistin-induced antimicrobial activity against Escherichia coli ATCC 25922 expressing mcr1 gene assessed as colistin MIC at 60 uM incubated for overnight duration by CLSI based method (reference value: 8 ug/ml). It is filed as functional.
For data set [4], the system named is Acinetobacter baumannii. Description: Potentiation of colistin-induced antimicrobial activity against colistin-resistant Acinetobacter baumannii PM4119 assessed as colistin MIC at 30 uM incubated for overnight duration by CLSI based method (reference value: 1024 ug/ml). In kind it is functional.
Data set [5] relates to Acinetobacter baumannii. Description: Potentiation of colistin-induced antimicrobial activity against colistin-resistant Acinetobacter baumannii PM3942 assessed as colistin MIC at 15 uM incubated for overnight duration by CLSI based method (reference value: 512 ug/ml). In kind it is functional.
Data set [6] concerns Escherichia coli. Nature of the data set: Potentiation of colistin-induced antimicrobial activity against Escherichia coli YD626 expressing mcr1 gene assessed as colistin MIC at 60 uM incubated for overnight duration by CLSI based method (reference value: 4 ug/ml). In kind it is functional.
Data set [7] has as its system Escherichia coli. Description: Potentiation of colistin-induced antimicrobial activity against Escherichia coli ATCC 25922 expressing mcr1 gene assessed as reduction in colistin MIC at 60 uM incubated for overnight duration by CLSI based method relative to colistin alone control. It is filed as functional.
Data set [8] relates to Acinetobacter baumannii. Nature of the data set: Potentiation of colistin-induced antimicrobial activity against colistin-resistant Acinetobacter baumannii PM4119 assessed as colistin MIC at 15 uM incubated for overnight duration by CLSI based method (reference value: 1024 ug/ml). In kind it is functional.
Data set [9] deals with Acinetobacter baumannii. Nature of the data set: Potentiation of colistin-induced antimicrobial activity against colistin-resistant Acinetobacter baumannii PM4112 assessed as colistin MIC at 15 uM incubated for overnight duration by CLSI based method (reference value: 1024 ug/ml). It is filed as functional.
Data set [10] has as its system Acinetobacter baumannii. Description: Potentiation of colistin-induced antimicrobial activity against colistin-resistant Acinetobacter baumannii PM4112 assessed as colistin MIC at 30 uM incubated for overnight duration by CLSI based method (reference value: 1024 ug/ml). It is filed as functional.
Data set [11] relates to Acinetobacter baumannii. Description: Potentiation of colistin-induced antimicrobial activity against colistin-resistant Acinetobacter baumannii PM4119 assessed as colistin MIC at 60 uM incubated for overnight duration by CLSI based method (reference value: 1024 ug/ml). It is filed as functional.
The test system of data set [12] is Klebsiella pneumoniae. Nature of the data set: Potentiation of colistin-induced antimicrobial activity against colistin-resistant Klebsiella pneumoniae B9 assessed as colistin MIC at 30 uM incubated for overnight duration by CLSI based method (reference value: 512 ug/ml). In kind it is functional.
The test system of data set [13] is Klebsiella pneumoniae. Description: Potentiation of colistin-induced antimicrobial activity against colistin-resistant Klebsiella pneumoniae C5 assessed as reduction in colistin MIC at 15 uM incubated for overnight duration by CLSI based method relative to colistin alone control. In kind it is functional.
In data set [14] the test system is Klebsiella pneumoniae. Nature of the data set: Potentiation of colistin-induced antimicrobial activity against colistin-resistant Klebsiella pneumoniae C3 assessed as colistin MIC at 30 uM incubated for overnight duration by CLSI based method (reference value: 512 ug/ml). It is filed as functional.
Data set [15] deals with Acinetobacter baumannii. Description: Potentiation of colistin-induced antimicrobial activity against colistin-resistant Acinetobacter baumannii PM3942 assessed as colistin MIC at 60 uM incubated for overnight duration by CLSI based method (reference value: 512 ug/ml). It is filed as functional.
The subject of data set [16] is Acinetobacter baumannii. Description: Potentiation of colistin-induced antimicrobial activity against Acinetobacter baumannii ATCC 17978 expressing mcr1 gene assessed as colistin MIC at 60 uM incubated for overnight duration by CLSI based method (reference value: 16 ug/ml). In kind it is functional.
Data set [17] deals with Klebsiella pneumoniae. Nature of the data set: Potentiation of colistin-induced antimicrobial activity against colistin-resistant Klebsiella pneumoniae C5 assessed as colistin MIC at 30 uM incubated for overnight duration by CLSI based method (reference value: 128 ug/ml). In kind it is functional.
For data set [18], the system named is Acinetobacter baumannii. Description: Potentiation of colistin-induced antimicrobial activity against colistin-resistant Acinetobacter baumannii PM3942 assessed as reduction in colistin MIC at 15 uM incubated for overnight duration by CLSI based method relative to colistin alone control. In kind it is functional.
The test system of data set [19] is Acinetobacter baumannii. Description: Toxicity against multidrug resistant Acinetobacter baumannii BAA1605 incubated for overnight duration by CLSI based method. It is filed as organism-based. To be noted: in vivo.

≈ marks a conversion by molar mass, not a printed value. Calls of active or inactive are those of the source. No cut-off for these calls is given here. Where only a bound is given, the exact number is not on record here.

As to `CCCCCCc1ccc(-c2cn(C(C)C)c(N)n2)cc1`, in the data set on Acinetobacter baumannii [1], the result was Active.

For `CCCCCc1ccc(C(=O)NCCn2cc(CCCCCc3cnc(N)n3Cc3ccc(CCCC)cc3)nn2)cc1`, the MIC in the data set on Klebsiella pneumoniae [2] is 2 µg/mL; in the data set on Escherichia coli [3], 0.031 µg/mL; in the data set with Acinetobacter baumannii [4] it was 4 µg/mL; in the data set on Acinetobacter baumannii [5], 32 µg/mL; with Escherichia coli [6] it was under 0.002 µg/mL; in the data set on Acinetobacter baumannii [8], 16 µg/mL. Also, the MIC amounted to 32 µg/mL in the data set with Acinetobacter baumannii [9]; 16 µg/mL with Acinetobacter baumannii [10]; 2 µg/mL with Acinetobacter baumannii [11]; 8 µg/mL with Klebsiella pneumoniae [12]; 16 µg/mL in the data set on Klebsiella pneumoniae [14]; 4 µg/mL in the data set on Acinetobacter baumannii [15]. Further, the MIC in the data set with Acinetobacter baumannii [16] is 0.25 µg/mL; with Klebsiella pneumoniae [17], 4 µg/mL. Further, the “fold change (FC)” value with Escherichia coli [7] stood at 256; in the data set on Klebsiella pneumoniae [13] it was 4; in the data set with Acinetobacter baumannii [18], 16.

The compound `CCCCCCc1ccc(-c2cn(CC)c(N)n2)cc1` came in with an MIC against Acinetobacter baumannii [19] of 200 µM (≈ 54.3 µg/mL).
